Literature values as cited in US20100113581A1, “COMBINATION THERAPIES FOR THE TREATMENT OF OBESITY” (priority 2008, published 2010).

What was measured:
[1] = published studies of weight loss medications
[2] = cyclodextrin derivatives

Row | Compound | weight loss of body weight for drug compared with placebo [1] | solubility in water [2]
1 | CC(C)CC(N(C)C)C1(c2ccc(Cl)cc2)CCC1 (centres unmarked) [sibutramine] | about 5% | –
2 | triacetyl-beta-cyclodextrin | – | insoluble
3 | CCN[C@@H](C)Cc1cccc(C(F)(F)F)c1 [dexfenfluramine] | about 5% | –
4 | G-2-beta-cyclodextrin | – | 147 % (w/v)
5 | CCCCCCCCCCC[C@@H](C[C@@H]1OC(=O)[C@H]1CCCCCC)OC(=O)[C@H](CC(C)C)NC=O [orlistat] | about 5% | –
